Measurements as given in PMC12040169 (PLOS Biology, 2025).

assay: in vitro; conditions: human, hela cells, % viability

Row | Compound | viability at 28.5 h, 10 µM
1 | O=[N+]([O-])c1cccc(-c2noc([C@@H]3C[C@@H](O)CN3C3CCOCC3)n2)c1 [CBK288847] | 101%
2 | O=c1oc2ccccc2n1Cc1coc(-c2ccccc2)n1 [CBK296649] | 98.1%
3 | C=CCOc1ccc(CNc2cccc(C(=O)O)c2)cc1OC [CBK074468] | 98.5%
4 | Cc1ccc(C(=O)N(C)CCN(C)C)c(NCc2cccnc2)n1 [CBK076348] | 91.5%
5 | CCNc1ncnc2c1oc1ccccc12 [CBK263298] | 89.8%
6 | CN(CCO)S(=O)(=O)c1cccc(C(=O)O)c1 [CBK266657] | 89.4%
7 | CS(=O)(=O)Nc1ncc(Br)cc1C(=O)Nc1ccc(C(F)(F)F)cc1 [CBK076485] | 96.7%
8 | CCCCCOc1nccnc1N1CCNCC1 [CBK001901G] | 103%
9 | Cc1cc(N2CCCC(N(C)S(=O)(=O)c3cccc(F)c3)CC2)nc(C)n1 (stereo not shown) [CBK285935] | 85.5%
10 | CCN(C(C)COC)S(=O)(=O)c1ccc(-n2ncc(Cl)c(Cl)c2=O)cc1 (stereo not shown) [CBK305662] | 37%
11 | Nc1n[nH]c(=O)c2c1ncn2[C@H]1C[C@@H](O)[C@@H](CO)O1 [CBK201169] | 93.7%
12 | Cc1nn(C)c(O)c1Cc1c(F)cccc1Cl [CBK067759] | 92.5%
13 | O=C(CC12CC3CC(CC(C3)C1)C2)Nc1nc[nH]n1 [CBK288208] | 117%
14 | CCCC(=O)NC1CC(C)(C)Cc2nc(N3CCOCC3)ncc21 (stereo not shown) [CBK306883] | 94.7%
15 | Cc1ccc(/C=C2\SC(=S)N(CCCC(=O)N3CCC(Cc4ccccc4)CC3)C2=O)cc1 [CBK264356] | 101%
16 | CN(CC(=O)NCc1ccccc1OC1CCNC1)C(=O)c1ccccc1 (stereo not shown) [CBK028298T] | 96.9%
17 | N#Cc1c(Cl)cccc1Oc1ccc(S(=O)(=O)Nc2cccc(C(=O)O)c2)cc1 [CBK155718] | 108%
18 | COc1cc(Nc2nc(-c3cccc(OC(F)(F)F)c3)cn3ccnc23)cc(OC)c1OC [CBK038036] | 101%
19 | Cn1cc(C2C[S+]([O-])CCN2Cc2csc3ccccc23)cn1 (stereo not shown) [CBK304085] | 103%
20 | Nc1nc(N)n(-c2ccccc2)n1 [CBK026515] | 104%
21 | CC(=O)Nc1ccc(S(=O)(=O)N2CCN(CCO)CC2)cc1 [CBK262196] | 95.1%

Row | Compound | viability at 28.5 h, 10 µM
22 | O=C1CC(c2ccccc2)CC(=O)N1c1ccc(N2CCOCC2)cc1 [CBK291191] | 108%
23 | O=C(NC1CCCN(CC(F)(F)F)C1=O)c1cnc(-c2ccncc2)s1 (stereo not shown) [CBK306175] | 82.6%
24 | NC(=O)CN1CCC2(CCN(C(=O)c3cc(F)c(F)cc3F)C2)C1 (stereo not shown) [CBK132140] | 86.6%
25 | O=C(OCc1csc2ccc(Cl)cc12)N1CCOCC1 [CBK200164] | 94.7%
26 | O=C(Cc1nnn[nH]1)N1CCC(Cn2cncn2)(C2CCCCC2)CC1 [CBK136796] | 92.2%
27 | O=C(O)c1ccc(COc2ccccc2/C=N/O)cc1 [CBK288481] | 108%
28 | CC(NC(=O)c1cccc(-n2cnnc2)c1)c1ccc2c(c1)CCC2 (stereo not shown) [CBK282707] | 91.9%
29 | CCCC(=O)c1ccc2c(c1)CC(N(CCC)CCC)C2 (stereo not shown) [CBK023971C] | 95.1%
30 | CCOC(=O)c1[nH]c2ccccc2c1NS(=O)(=O)c1ccc(C)c([N+](=O)[O-])c1 [CBK047427] | 97.6%
31 | COC(=O)c1ccc(N2CCN(Cc3nc(C)no3)C(C)C2)cc1 (stereo not shown) [CBK305998] | 92.3%
32 | O=c1[nH]c(-c2ccccc2)nc2c1CN(Cc1ccc(F)cc1)CC2 [CBK282329] | 93.3%
33 | O=S(=O)(Nc1nccnc1Cl)c1ccccc1Cl [CBK149698] | 84.3%
34 | Nc1ncc(-c2ccsc2)c2cccnc12 [CBK067580] | 97.5%
35 | COc1cccc(NC(=O)N[C@H]2[C@H](O)[C@@H](N3CCOCC3)[C@@H]3OC[C@H]2O3)c1 [CBK288821] | 109%
36 | CC(=O)N1CCC[C@H]2NC(=O)CNC(=O)C3(C/C=C/C[C@H]21)CCN(c1ncccn1)CC3 [CBK292042] | 110%
37 | Cc1ccc(OCc2nnc(SCc3cccc(C#N)c3)n2Cc2ccccc2)cc1C [CBK266065] | 90.5%
38 | CN(CCC1CCOCC1)c1nc2c(c(=O)[nH]1)Cc1ccccc1OC2 [CBK306622] | 96.2%
39 | CC(NC(=O)C1(Cn2ccnc2)CC1)c1cccnc1 (stereo not shown) [CBK306812] | 97.3%
40 | CC1(C)NC(=O)N(CC(O)CN(c2cc(Cl)ccc2Cl)S(=O)(=O)c2ccccc2)C1=O (stereo not shown) [CBK033672] | 91.4%
41 | COCCCn1c(=O)[nH]c2ncc(-c3ccc(C(=O)N4CCOCC4)cc3)nc21 [CBK064366] | 97.8%
42 | CCOc1cc(OCC)cc(C(=O)N2CCCC3(CC(=O)c4ccc(C)cc4O3)C2)c1 (stereo not shown) [CBK168067] | 93.9%

Row | Compound | viability at 28.5 h, 10 µM
43 | CC(=O)c1ccc(N2CCN(S(=O)(=O)c3ccc(O)c(C(=O)O)c3)CC2)cc1 [CBK296961] | 94%
44 | Oc1ccc2nc(N[C@H]3CC4CCC3C4)sc2c1Cl (stereo partly shown) [CBK024348G] | 62.1%
45 | COc1ccc(C(C)C)cc1-c1ccc(C(=O)N2CCN(C)CC2)c(N(C)C)n1 [CBK106130] | 88%
46 | CCN(CC)c1ccc(C(=O)CN2CCN(c3nccnc3OCCN3CCOCC3)CC2)cc1 [CBK082898T] | 97.4%
47 | C[C@@H]1CN(Cc2ccccc2)C[C@H](C)N1 [CBK001569] | 86.1%
48 | O=C(O)CCn1ncc2ccccc21 [CBK262257] | 89.8%
49 | O=C(O)C(CCO)Sc1nnc(Nc2ccc(Oc3ccccc3)cc2)s1 (stereo not shown) [CBK296631] | 85.7%
50 | CC(C)(CC(=O)O)CC(=O)Nc1ccc(N2CCCC2=O)cc1 [CBK299787] | 109%
51 | CSc1nn(C)c(=O)c2c3c(sc12)CCC3 [CBK019796] | 83.7%
52 | CC(C)c1csc(CNC(=O)NC2CCCN(c3ccn(C)n3)C2=O)n1 (stereo not shown) [CBK304447] | 83.6%
53 | CCn1ncc2c1CCCC2NC1CCN(c2ccc(C#N)cc2)C1=O (stereo not shown) [CBK305200] | 96.8%
54 | Clc1ccc(COc2cccc3cccnc23)cn1 [CBK002718] | 93.2%
55 | CSc1nc(NC(=O)c2cc(-c3ccccc3)oc2C)cc(N2CCNCC2)n1 [CBK050364T] | 89.9%
56 | COc1ccc(-c2cn(-c3ccc(OC)c(OC)c3)nn2)cc1 [CBK113001] | 121%
57 | Cc1nc(C2CCN(C(=O)CCc3ccno3)CC2)c2sccn12 [CBK282239] | 93.1%
58 | O=C1NCCCc2nc(Nc3ccccc3)sc21 [CBK087091] | 83.8%
59 | COC(=O)[C@@H]1Cc2ncn(C(C)C)c2CN1C(=O)C1CCCCC1 [CBK288989] | 98.9%
60 | COc1ccc(Cl)cc1NC(=O)Nc1ccc(C(=O)N2CCOCC2)cc1 [CBK266958] | 87.1%
61 | CCNC(=O)COc1ccc(C=Cc2nc(-c3ccccc3)c(C(=O)O)s2)cc1OCC [CBK296644] | 94.6%
62 | Cc1cc(CN2CCCC2)cc(C)c1O [CBK028736C] | 96.3%
63 | Cc1ccc(-c2cc(C(=O)Nc3cccnc3)[nH]n2)c(O)c1C [CBK288158] | 93.3%

same assay, conditions: human, hela cells, % viability, bulk resorufin, single well

Row | Compound | viability at 28.5 h, 10 µM
64 | O=C1NC(=O)N(c2cccc([N+](=O)[O-])c2)C(=O)/C1=C\c1ccccc1OCc1ccc(C(=O)O)cc1 [CBK265484] | 106%
